Consider one compound from patent US11180510B2, “Xanthine derivatives and uses thereof as inhibitors of bromodomains of BET proteins” (Centre national de la recherche scientifique, priority 2017, dated 2021).

What all share (assay type): binding
Assay [1] has as its target T1, Brd3(BD2) (Homo sapiens, UniProt Q15059).
T1 construct: GST tagged bromodomain proteins were purchased from BPS Bioscience; purchased BPS Bioscience
The assay is described as follows: HTRF BET selectivity profile, Brd3(BD2). The gist of the method:
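HTRF peptide-displacement assay with GST-tagged bromodomains and histone peptide, 0.5% final DMSO, incubated 3 h, 6 h or overnight at room temperature or 4 °C depending on bromodomain. 665/620 nm ratio read; inhibition scaled between DMSO and no-peptide controls, IC50 in triplicate.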
In general terms: TR-FRET usually uses a lanthanide donor and a delayed reading to cut background.

The target of assay [2] is T2, BRD4(BD1) (Homo sapiens, UniProt O60885). The assay is described as follows: Isothermal Titration Calorimetry. Conditions: Brd4 (BD1), FIG. 1; read-out: KD by ITC (orthogonal assay). The essentials:
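[…]; general protocol uses 13 injections at 25° C, with protein titrant at 10–15× the compound concentration. Integrated heats fitted to a one-site model for ΔH and KA, with ΔG and TΔS derived from these.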
For orientation: ITC needs no label: the signal is the heat of the interaction.

For assay [3], the system named is 61 bromodomains. The assay can be described thus: Thermal shift assay selectivity profile on 61 bromodomains. Conditions: compound at 25 μM, 25 µM. On the procedure:
FIG. 3. Thermal Shift Assay (TSA) of 43c. The evaluation was performed on 61 bromodomains. A cut-off at +/−3.5° C. was set.
TSA “Bromoscan” assays (Reaction Biology) were performed in 384 well RT-PCR plate (BioRad) with a total working volume of 15 μL. The “BromoMelT™, containing the 61 GST- or His-tagged-bromodomains, SYPRO® Orange and a mix compounds as control, was purchased from Reaction Biology. For each point, 3 μL of protein (1×) and 12 μL master mix (buffer+SYPRO® Orange+compound at 25 μM or control mix compounds or DMSO (0.5%)) were mixed in plate. The plate was placed in a CFX384 RTQPC (BioRad), and heated 10 seconds at 25° C., then the temperature was increased from 25° C. to 90° C., by increment of 0.5° C. every 30 seconds. The fluorescence was recorded using FRET filters.

For assay [4], the target named is T2, BRD4(BD1). The assay is described as follows: BROMOscan assays.
Assay [5] concerns the target T2, BRD4(BD1). The assay is described as follows: HTRF assay, BRD4(BD1)/histone peptide interaction. On the set-up: made in house.
The target in assay [6] is Brd3(BD1) (Homo sapiens, UniProt Q15059). The assay is described as follows: HTRF BET selectivity profile, Brd3(BD1). On the set-up: GST tagged bromodomain proteins were purchased from BPS Bioscience; purchased BPS Bioscience.
Sequence of Brd3(BD1) (Q15059 34-140 limits assumed): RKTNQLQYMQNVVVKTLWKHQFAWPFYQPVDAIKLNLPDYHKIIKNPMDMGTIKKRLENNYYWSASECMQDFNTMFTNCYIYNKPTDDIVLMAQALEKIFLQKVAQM

Entries after “also recorded” stand apart in the source; their conditions may differ.

The IC50 is the concentration at which inhibition is half-maximal. By Kd is commonly meant a measure of binding affinity in units of concentration.

T1 sequence (Q15059 306-415 limits assumed): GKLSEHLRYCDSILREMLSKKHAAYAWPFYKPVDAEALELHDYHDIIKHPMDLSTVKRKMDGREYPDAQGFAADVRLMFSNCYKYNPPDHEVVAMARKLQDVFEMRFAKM

For the compound `CCn1cnc2c1c(=O)[nH]c(=O)n2Cc1ccc(CNS(=O)(=O)c2ccc(OC3CCOCC3)c(F)c2)cc1` [Compound 43c], the IC50 in assay [1] worked out at 2170 nM; in assay [5] (HTRF, mean of three experiments, NA = IC50 > 50 μM, read-out: Brd4(8D1) IC50), 74 nM; in assay [6], 132 nM. Further, the Kd amounted to 90 nM in assay [2] and 32 nM in assay [4]. Further, the “Bromodomain selectivity profile by thermal shift assay” value in assay [3] was “stabilize only BET proteins; also recorded: stabilizes only BRD4 (BD1) and BRD3 (BD1)”. For the same compound, the “selectivity ratio to the first bromodomain, BROMOscan” value in assay [4] is on record as “up to 313 fold”. Moreover, in assay [5] (selectivity Brd4(BD1) vs Brd4(BD2), HTRF IC50), the “Ratio 4-1 vs 4-2” value amounted to 31. Further, the “Ratio 3-1 vs 3-2” value in assay [6] (selectivity Brd3(BD1) vs Brd3(BD2), HTRF IC50) is given as 16.
